# Results as given in patent publication US20240270762A1, “PENICILLIN-BINDING PROTEIN INHIBITORS” (priority 2021, published 2024).
# pEC50: −log10 of the molar value.
# Biological target: T1, A. baumannii PBP1a (Acinetobacter baumannii, UniProt A0ABX6CK30)
# T1 sequence (A0ABX6CK30 1-851): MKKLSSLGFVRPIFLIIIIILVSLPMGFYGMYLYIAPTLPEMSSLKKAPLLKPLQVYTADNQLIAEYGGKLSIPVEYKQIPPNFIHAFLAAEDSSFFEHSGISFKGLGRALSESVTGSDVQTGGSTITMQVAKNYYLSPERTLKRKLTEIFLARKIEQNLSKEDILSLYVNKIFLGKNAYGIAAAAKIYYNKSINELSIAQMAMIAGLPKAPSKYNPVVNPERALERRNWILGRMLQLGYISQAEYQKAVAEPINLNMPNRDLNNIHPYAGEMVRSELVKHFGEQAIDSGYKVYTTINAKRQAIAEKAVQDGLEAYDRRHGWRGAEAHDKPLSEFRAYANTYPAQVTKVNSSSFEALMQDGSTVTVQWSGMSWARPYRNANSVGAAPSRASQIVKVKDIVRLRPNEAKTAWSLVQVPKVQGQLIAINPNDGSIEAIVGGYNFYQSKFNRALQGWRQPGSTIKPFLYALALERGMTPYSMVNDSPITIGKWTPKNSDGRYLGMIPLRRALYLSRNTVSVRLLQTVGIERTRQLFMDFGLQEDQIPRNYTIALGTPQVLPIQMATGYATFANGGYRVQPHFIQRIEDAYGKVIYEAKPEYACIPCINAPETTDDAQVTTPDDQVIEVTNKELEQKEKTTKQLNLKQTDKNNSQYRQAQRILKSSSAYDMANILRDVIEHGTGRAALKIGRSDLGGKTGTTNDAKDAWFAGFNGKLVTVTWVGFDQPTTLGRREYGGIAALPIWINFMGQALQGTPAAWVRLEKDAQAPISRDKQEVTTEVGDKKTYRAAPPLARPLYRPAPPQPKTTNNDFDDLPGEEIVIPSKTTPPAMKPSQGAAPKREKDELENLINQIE
# Experiment: Bocillin-FL competition binding via gel filtration, A. baumannii PBP1a
# Settings: competition binding assay using Bocillin-FL via gel filtration; read-out: A. baumannii PBP1a Potency
# Procedure, shortened: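 Competitive equilibrium binding with Bocillin-FL reporter: PBP pre-incubated with inhibitor dilutions, Bocillin-FL added, 15 min incubation. Labelled enzyme isolated by size-exclusion spin plates, fluorescence measured; EC50 obtained by fitting bound fraction against inhibitor concentration with a Hill-coefficient model.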
row,Compound,pEC50
1,"CN(CCN1CCN(C(=O)N[C@@H](C(=O)N[C@H]2Cc3ccc(F)c(C(=O)O)c3OB2O)c2cc(F)c(O)c(O)c2Cl)C(=O)C1=O)Cc1cccnc1 [Example 201, (R)-3-((R)-2-(2-chloro-5-fluoro-3,4-dihydroxyphenyl)-2-(4-(2-(methyl(pyridin-3-ylmethyl)amino)ethyl)-2,3-dioxopiperazine-1-carboxamido)acetamido)-7-fluoro-2-hydroxy-3,4-dihydro-2H-benzo[e][1,2]oxaborinine-8-carboxylic acid]",4.30 to 5.00
2,"O=C(NCCN1CCN(C(=O)NC(C(=O)N[C@H]2Cc3ccc(F)c(C(=O)O)c3OB2O)c2cc(F)c(O)c(O)c2Cl)C(=O)C1=O)c1ccccc1 (stereo partly drawn) [Example 207, (3R)-3-(2-(4-(2-benzamidoethyl)-2,3-dioxopiperazine-1-carboxamido)-2-(2-chloro-5-fluoro-3,4-dihydroxyphenyl)acetamido)-7-fluoro-2-hydroxy-3,4-dihydro-2H-benzo[e][1,2]oxaborinine-8-carboxylic acid]",4.30 to 5.00
3,"O=C(CN1CCN(C(=O)NC(C(=O)N[C@H]2Cc3ccc(F)c(C(=O)O)c3OB2O)c2cc(F)c(O)c(O)c2Cl)C(=O)C1=O)Nc1ccc(O)cc1 (stereo partly drawn) [Example 230, (3R)-3-(2-(2-chloro-5-fluoro-3,4-dihydroxyphenyl)-2-(4-(2-((4-hydroxyphenyl)amino)-2-oxoethyl)-2,3-dioxopiperazine-1-carboxamido)acetamido)-7-fluoro-2-hydroxy-3,4-dihydro-2H-benzo[e][1,2]oxaborinine-8-carboxylic acid]",4.30 to 5.00
4,"O=C(NCCN1CCN(C(=O)NC(C(=O)N[C@H]2Cc3ccc(F)c(C(=O)O)c3OB2O)c2cc(F)c(O)c(O)c2Cl)C1=O)c1ccc(O)cc1 (stereo partly drawn) [Example 243, (3R)-3-(2-(2-chloro-5-fluoro-3,4-dihydroxyphenyl)-2-(3-(2-(4-hydroxybenzamido)ethyl)-2-oxoimidazolidine-1-carboxamido)acetamido)-7-fluoro-2-hydroxy-3,4-dihydro-2H-benzo[e][1,2]oxaborinine-8-carboxylic acid]",4.30 to 5.00
5,"O=C(NCCN1CCN(C(=O)NC(C(=O)N[C@H]2Cc3ccc(F)c(C(=O)O)c3OB2O)c2cc(F)c(O)c(O)c2Cl)C1=O)c1cccc(O)c1 (stereo partly drawn) [Example 244, (3R)-3-(2-(2-chloro-5-fluoro-3,4-dihydroxyphenyl)-2-(3-(2-(3-hydroxybenzamido)ethyl)-2-oxoimidazolidine-1-carboxamido)acetamido)-7-fluoro-2-hydroxy-3,4-dihydro-2H-benzo[e][1,2]oxaborinine-8-carboxylic acid]",4.30 to 5.00
6,"O=C(NCCCS(=O)(=O)N1CCN(C(=O)NC(C(=O)N[C@H]2Cc3ccc(F)c(C(=O)O)c3OB2O)c2cc(F)c(O)c(O)c2Cl)C1=O)c1ccncc1 (stereo partly drawn) [Example 272, (3R)-3-(2-(2-chloro-5-fluoro-3,4-dihydroxyphenyl)-2-(3-((3-(isonicotinamido)propyl)sulfonyl)-2-oxoimidazolidine-1-carboxamido)acetamido)-7-fluoro-2-hydroxy-3,4-dihydro-2H-benzo[e][1,2]oxaborinine-8-carboxylic acid]",4.30 to 5.00
7,"O=C(NCCCS(=O)(=O)N1CCN(C(=O)NC(C(=O)N[C@H]2Cc3ccc(F)c(C(=O)O)c3OB2O)c2cc(F)c(O)c(O)c2Cl)C1=O)c1nccs1 (stereo partly drawn) [Example 274, (3R)-3-(2-(2-chloro-5-fluoro-3,4-dihydroxyphenyl)-2-(2-oxo-3-((3-(thiazole-2-carboxamido)propyl)sulfonyl)imidazolidine-1-carboxamido)acetamido)-7-fluoro-2-hydroxy-3,4-dihydro-2H-benzo[e][1,2]oxaborinine-8-carboxylic acid]",> 5.00
8,"O=C(NCCCS(=O)(=O)N1CCN(C(=O)NC(C(=O)N[C@H]2Cc3ccc(F)c(C(=O)O)c3OB2O)c2cc(F)c(O)c(O)c2Cl)C1=O)Nc1ccc(O)cc1 (stereo partly drawn) [Example 276, (3R)-3-(2-(2-chloro-5-fluoro-3,4-dihydroxyphenyl)-2-(3-((3-(3-(4-hydroxyphenyl)ureido)propyl)sulfonyl)-2-oxoimidazolidine-1-carboxamido)acetamido)-7-fluoro-2-hydroxy-3,4-dihydro-2H-benzo[e][1,2]oxaborinine-8-carboxylic acid]",> 5.00
